In the assay the test system is 388556-164-R-J1-PDC complex spheroid viability. Nature of the assay: Anticancer human tumor 388556-164-R-J1-PDC patient-derived colon adenocarcinoma cell line growth inhibition [RAS]. The following applies: for viability, T/C: stronger effect = lower value. The essentials:
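Tumour cells grown as complex spheroids with HUVEC endothelial cells and mesenchymal stem cells, treated with RAS pathway inhibitor combinations. Each agent spans half-log steps from near clinical Cmax, or 10 microM where Cmax is unknown.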

The mark [1] stands for this setting: curve of first compound, second compound 0.000949 µM.
The mark [2] stands for this setting: curve of first compound, second compound 0.003 µM.
Setting [3] is: curve of first compound, second compound 0.00949 µM.
Where [4] appears, read: curve of first compound, second compound 0.03 µM.
Where [5] appears, read: curve of first compound, second compound 0.0949 µM.
The mark [6] stands for this setting: curve of first compound, second compound 0.3 µM.
The mark [7] stands for this setting: second compound 0.000949 µM, first compound 0.0316 µM.
The mark [8] stands for this setting: second compound 0.000949 µM, first compound 0.1 µM.
The mark [9] stands for this setting: second compound 0.000949 µM, first compound 0.316 µM.
Setting [10] is: second compound 0.000949 µM, first compound 1 µM.
The mark [11] stands for this setting: second compound 0.003 µM, first compound 0.0316 µM.
[12] abbreviates: second compound 0.003 µM, first compound 0.1 µM.
Setting [13] is: second compound 0.003 µM, first compound 0.316 µM.
The mark [14] stands for this setting: second compound 0.003 µM, first compound 1 µM.
Setting [15] is: second compound 0.00949 µM, first compound 0.0316 µM.
[16] abbreviates: second compound 0.00949 µM, first compound 0.1 µM.
[17] abbreviates: second compound 0.00949 µM, first compound 0.316 µM.
Setting [18] is: second compound 0.00949 µM, first compound 1 µM.
[19] abbreviates: second compound 0.03 µM, first compound 0.0316 µM.
The mark [20] stands for this setting: second compound 0.03 µM, first compound 0.1 µM.
Setting [21] is: second compound 0.03 µM, first compound 0.316 µM.
Setting [22] is: second compound 0.03 µM, first compound 1 µM.
Setting [23] is: second compound 0.0949 µM, first compound 0.0316 µM.
[24] abbreviates: second compound 0.0949 µM, first compound 0.1 µM.
Setting [25] is: second compound 0.0949 µM, first compound 0.316 µM.
The mark [26] stands for this setting: second compound 0.0949 µM, first compound 1 µM.
[27] abbreviates: second compound 0.3 µM, first compound 0.0316 µM.
[28] abbreviates: second compound 0.3 µM, first compound 0.1 µM.
Where [29] appears, read: second compound 0.3 µM, first compound 0.316 µM.
The mark [30] stands for this setting: second compound 0.3 µM, first compound 1 µM.

As a reminder, the IC50 is the concentration that gives 50% inhibition. One may read the viability, T/C as the result in the treated group divided by that in the control group, in per cent.

The structures appear in SMILES notation. Values joined by “and” are separate entries in the source; they are usually repeats but may differ in a detail not shown here. Identical values can stand only once.
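Further: spheroids exposed to compound for 7 days before readout.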
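Wherever viability, T/C is given: 100% = DMSO vehicle control luminescence.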

On to `CC(Nc1ccc2c(c1)OCCn1cc(N3C(=O)OCC3C(F)F)nc1-2)C(N)=O` (stereo not given) + CCn1c(-c2cc(N3CCN(C)CC3)cnc2C(C)OC)c2c3cc(ccc31)-c1csc(n1)CC(NC(=O)C1CC1C)C(=O)N1CCCC(N1)C(=O)OCC(C)(C)C2, for which the IC50 reads like this: under setting [1], more than 10000 nM; under setting [2], 3450 nM; under setting [3], 854 nM; under setting [4], 98.5 nM; under setting [5], less than 31.6 nM; under setting [6], less than 31.6 nM. The viability, T/C is 89.5% under setting [7]; 82.3% under setting [8]; 71.9% under setting [9]; 66.6% under setting [10]; 59.6% (second compound 0.000949 µM, first compound 3.16 µM); 49.6% (second compound 0.000949 µM, first compound 10 µM). The viability, T/C is 82.4% under setting [11]; 79.2% under setting [12]; 63.4% under setting [13]; 62.6% under setting [14]; 51.6% (second compound 0.003 µM, first compound 3.16 µM); 40.2% (second compound 0.003 µM, first compound 10 µM). The viability, T/C is 79.3% under setting [15]; 75% under setting [16]; 48.5% under setting [17]; 52.4% under setting [18]; 43.8% (second compound 0.00949 µM, first compound 3.16 µM); 31.9% (second compound 0.00949 µM, first compound 10 µM). Further, the viability, T/C under setting [19] was 55.8%; the viability, T/C under setting [20] was 48.4%; the viability, T/C under setting [21] was 42%; the viability, T/C under setting [22] is 42.7%; the viability, T/C (second compound 0.03 µM, first compound 3.16 µM) is 34.7%; the viability, T/C (second compound 0.03 µM, first compound 10 µM) was 25.7%. Also, the viability, T/C runs as follows: under setting [23], 42.3%; under setting [24], 38%; under setting [25], 31.6%; under setting [26], 27.9%; (second compound 0.0949 µM, first compound 3.16 µM) 22.7%; (second compound 0.0949 µM, first compound 10 µM) 16.3%. Also, the viability, T/C reads like this: under setting [27], 28.2%; under setting [28], 26.2%; under setting [29], 22.9%; under setting [30], 21%; (second compound 0.3 µM, first compound 3.16 µM) 18.6%; (second compound 0.3 µM, first compound 10 µM) 14.2%.
With `CC(C)n1nc(-c2ccc3oc(N)nc3c2)c2c(N)ncnc21`, the viability, T/C reads like this: (compound 0.000316 µM) 104% and 82.3% and 101% (2×); (compound 0.00316 µM) 86.8% and 105% (2×) and 98.4%; (compound 0.01 µM) 83% [middle of 4 runs]; (compound 0.0316 µM) 59.4% [middle of 4 runs]; (compound 0.1 µM) 40% (2×) and 49.2% and 51.2%.
Consider `O=C(c1ccc(F)c(F)c1Nc1ccc(I)cc1F)N1CC(O)([C@@H]2CCCCN2)C1` + CCn1c(-c2cc(N3CCN(C)CC3)cnc2C(C)OC)c2c3cc(ccc31)-c1csc(n1)CC(NC(=O)C1CC1C)C(=O)N1CCCC(N1)C(=O)OCC(C)(C)C2, for which the IC50 under setting [1] worked out at 132 nM; the IC50 under setting [2] turned out to be 84.5 nM; the IC50 under setting [3] amounted to 36.1 nM; the IC50 under setting [4] was 8.39 nM; the IC50 under setting [5] was less than 3.16 nM; the IC50 under setting [6] was less than 3.16 nM. Further, the viability, T/C (second compound 0.000949 µM, first compound 0.00316 µM) was 96%; the viability, T/C (second compound 0.000949 µM, first compound 0.01 µM) was 91%; the viability, T/C under setting [7] is 72.6%; the viability, T/C under setting [8] was 58.3%; the viability, T/C under setting [9] is 31.8%; the viability, T/C under setting [10] was 19.9%. Besides, the viability, T/C is 97.5% (second compound 0.003 µM, first compound 0.00316 µM); 83.3% (second compound 0.003 µM, first compound 0.01 µM); 70.5% under setting [11]; 46% under setting [12]; 29.1% under setting [13]; 19.3% under setting [14]. Besides, the viability, T/C (second compound 0.00949 µM, first compound 0.00316 µM) was 80.9%; the viability, T/C (second compound 0.00949 µM, first compound 0.01 µM) is 69.2%; the viability, T/C under setting [15] is 50.1%; the viability, T/C under setting [16] is 38%; the viability, T/C under setting [17] was 24.1%; the viability, T/C under setting [18] was 18.7%. Besides, the viability, T/C was 63.6% (second compound 0.03 µM, first compound 0.00316 µM); 45.8% (second compound 0.03 µM, first compound 0.01 µM); 36.9% under setting [19]; 30.1% under setting [20]; 19.7% under setting [21]; 18.6% under setting [22]. For the same compound, the viability, T/C by setting is: (second compound 0.0949 µM, first compound 0.00316 µM) 35%; (second compound 0.0949 µM, first compound 0.01 µM) 33.2%; under setting [23], 30.3%; under setting [24], 18.4%; under setting [25], 17.9%; under setting [26], 18.8%. Besides, the viability, T/C reads like this: (second compound 0.3 µM, first compound 0.00316 µM) 28.3%; (second compound 0.3 µM, first compound 0.01 µM) 26.1%; under setting [27], 20.1%; under setting [28], 16.9%; under setting [29], 18.4%; under setting [30], 17%.
In the case of `C#Cc1c(F)ccc2cc(O)cc(-c3ncc4c(N5CC6CCC(C5)N6)nc(OCC56CCCN5CC(F)C6)nc4c3F)c12` (stereo not given), the viability, T/C is 84.2% [middle of 8 runs] (compound 0.0316 µM); 75.7% [middle of 8 runs] (compound 0.1 µM); 95.4% [middle of 8 runs] (compound 0.316 µM); 93.8% [middle of 8 runs] (compound 1 µM); 87.3% [middle of 7 runs] (compound 3.16 µM); 70.4% [middle of 8 runs] (compound 10 µM). Further, under “compound alone, run of 09/09/2024”, the IC50 is more than 10000 nM.
For the compound `C[C@@H](NC(=O)c1ncnc(N)c1Cl)c1ncc(C(=O)Nc2cc(C(F)(F)F)c(Cl)cn2)s1`, the viability, T/C is 106% [middle of 4 runs] (compound 0.0316 µM); 112% [middle of 4 runs] (compound 0.1 µM); 121% [middle of 4 runs] (compound 0.316 µM); 118% and 115% (2×) and 132% (compound 1 µM); 116% [middle of 4 runs] (compound 3.16 µM); 97.4% [middle of 4 runs] (compound 10 µM). For the same compound, under “curve of compound”, the IC50 is more than 10000 nM.
On to `CCc1c2c(nc3ccc(O)cc13)-c1cc3c(c(=O)n1C2)COC(=O)[C@]3(O)CC`, for which the viability, T/C was 108% [middle of 4 runs] (compound 0.000949 µM); 93.6% [middle of 4 runs] (compound 0.003 µM); 84.6% [middle of 4 runs] (compound 0.00949 µM); 68.7% [middle of 4 runs] (compound 0.03 µM); 50.5% [middle of 4 runs] (compound 0.0949 µM); 32% [middle of 4 runs] (compound 0.3 µM). Further, the IC50 (curve of compound) is 90.4 nM [middle of 4 runs].
